Data as given in paper PMC5218480 (PLoS ONE, 2017).

System: MV-4-11 cells
Test: Gene expression microarray analysis (Affymetrix PrimeView) and GSEA
Assay type: cell-based, human
Parameters: RFU PODN (11730768_x_at) / Fold change /veh PODN (11730768_x_at) / RFU LINC00158 (11744669_a_at) / Fold change /veh LINC00158 (11744669_a_at) / RFU DUSP10 (11751237_a_at) / Fold change /veh DUSP10 (11751237_a_at) / RFU ID3 (11757404_x_at) / Fold change /veh ID3 (11757404_x_at) / RFU PLEKHG5 (11737974_s_at) / Fold change /veh PLEKHG5 (11737974_s_at) / RFU LRRC4B (11730491_at) / Fold change /veh LRRC4B (11730491_at) / RFU GIMAP4 (11747438_a_at) / Fold change /veh GIMAP4 (11747438_a_at) / RFU KRT8 (11758183_x_at) / Fold change /veh KRT8 (11758183_x_at) / RFU CNN1 (11734310_a_at) / Fold change /veh CNN1 (11734310_a_at) / RFU VPS37D (11726825_at) / Fold change /veh VPS37D (11726825_at) / RFU C10orf10 (11716522_x_at) / Fold change /veh C10orf10 (11716522_x_at) / RFU KIR2DL2 /// KIR2DL4 /// KIR2DL5A /// KIR2DL5B /// KIR2DS1 /// KIR2DS2 /// KIR2DS3 /// KIR2DS4 /// KIR3DL3 /// KIR3DL3 /// KIR3DS1 (11738374_at) / Fold change /veh KIR2DL2 /// KIR2DL4 /// KIR2DL5A /// KIR2DL5B /// KIR2DS1 /// KIR2DS2 /// KIR2DS3 /// KIR2DS4 /// KIR3DL3 /// KIR3DL3 /// KIR3DS1 (11738374_at) / RFU C1QL1 (11718748_at) / Fold change /veh C1QL1 (11718748_at) / RFU TMPRSS4 (11747572_a_at) / Fold change /veh TMPRSS4 (11747572_a_at) / RFU HAMP (11756126_x_at) / Fold change /veh HAMP (11756126_x_at) / RFU RNFT2 (11725882_a_at) / Fold change /veh RNFT2 (11725882_a_at) / RFU NR4A2 (11747474_a_at) / Fold change /veh NR4A2 (11747474_a_at) / RFU ABCC12 (11746883_a_at) / Fold change /veh ABCC12 (11746883_a_at) / RFU TMEM136 (11760407_x_at) / Fold change /veh TMEM136 (11760407_x_at) / RFU CLDN22 /// WWC2 (11732394_at) / Fold change /veh CLDN22 /// WWC2 (11732394_at) / RFU HLA-DPB1 (11760878_x_at) / Fold change /veh HLA-DPB1 (11760878_x_at) / RFU SPINT1 (11716480_a_at) / Fold change /veh SPINT1 (11716480_a_at) / RFU GAP43 (11754022_s_at) / Fold change /veh GAP43 (11754022_s_at) / RFU A4GNT (11735810_at) / Fold change /veh A4GNT (11735810_at) / RFU PRB3 (11715151_x_at) / Fold change /veh PRB3 (11715151_x_at) / RFU TUBB4B (11761932_at) / Fold change /veh TUBB4B (11761932_at) / RFU CAPN14 (11732068_a_at) / Fold change /veh CAPN14 (11732068_a_at) / RFU TMCC2 (11721928_a_at) / Fold change /veh TMCC2 (11721928_a_at) / RFU IRGQ (11745062_a_at) / Fold change /veh IRGQ (11745062_a_at) / RFU FAM174B (11720279_a_at) / Fold change /veh FAM174B (11720279_a_at) / RFU TMPRSS4 (11748680_a_at) / Fold change /veh TMPRSS4 (11748680_a_at) / RFU FAM212B (11763350_a_at) / Fold change /veh FAM212B (11763350_a_at) / RFU PLEKHG5 (11743358_a_at) / Fold change /veh PLEKHG5 (11743358_a_at) / RFU ZSCAN30 (11745921_a_at) / Fold change /veh ZSCAN30 (11745921_a_at) / RFU CMKLR1 (11741424_a_at) / Fold change /veh CMKLR1 (11741424_a_at) / RFU LOC101060620 /// MAPK8IP1 (11723275_at) / Fold change /veh LOC101060620 /// MAPK8IP1 (11723275_at) / RFU SPTSSB (11747773_x_at) / Fold change /veh SPTSSB (11747773_x_at) / RFU PRSS12 (11739890_at) / Fold change /veh PRSS12 (11739890_at) / RFU BIN1 (11741810_x_at) / Fold change /veh BIN1 (11741810_x_at) / RFU WNT11 (11732464_a_at) / Fold change /veh WNT11 (11732464_a_at) / RFU C10orf10 (11716521_a_at) / Fold change /veh C10orf10 (11716521_a_at) / RFU C5orf56 (11738089_at) / Fold change /veh C5orf56 (11738089_at) / RFU CYB561 (11721691_x_at) / Fold change /veh CYB561 (11721691_x_at) / RFU ANKRD19P (11752326_a_at) / Fold change /veh ANKRD19P (11752326_a_at) / RFU OR2T12 /// OR2T33 /// OR2T8 (11738714_s_at) / Fold change /veh OR2T12 /// OR2T33 /// OR2T8 (11738714_s_at) / RFU VCAN (11748164_a_at) / Fold change /veh VCAN (11748164_a_at) / RFU JSRP1 (11732532_at) / Fold change /veh JSRP1 (11732532_at) / RFU KRTAP10-11 (11738290_x_at) / Fold change /veh KRTAP10-11 (11738290_x_at) / RFU MYO3A (11730013_a_at) / Fold change /veh MYO3A (11730013_a_at) / RFU EBF3 (11725865_a_at) / Fold change /veh EBF3 (11725865_a_at) / RFU CAMK2N1 (11719241_x_at) / Fold change /veh CAMK2N1 (11719241_x_at) / RFU C5orf56 (11738088_a_at) / Fold change /veh C5orf56 (11738088_a_at) / RFU OLFML3 (11715873_a_at) / Fold change /veh OLFML3 (11715873_a_at) / RFU LOC100653217 /// NTM (11731650_a_at) / Fold change /veh LOC100653217 /// NTM (11731650_a_at) / RFU MAPK11 (11762145_a_at) / Fold change /veh MAPK11 (11762145_a_at) / RFU FIZ1 (11724087_x_at) / Fold change /veh FIZ1 (11724087_x_at) / RFU OASL (11726364_x_at) / Fold change /veh OASL (11726364_x_at) / RFU SOX15 (11748057_x_at) / Fold change /veh SOX15 (11748057_x_at) / RFU CD79A (11719716_a_at) / Fold change /veh CD79A (11719716_a_at) / RFU HIST1H1D (11736915_at) / Fold change /veh HIST1H1D (11736915_at) / RFU CASKIN2 (11723855_a_at) / Fold change /veh CASKIN2 (11723855_a_at) / RFU LOC730098 (11760151_x_at) / Fold change /veh LOC730098 (11760151_x_at) / RFU OR4N2 (11742367_at) / Fold change /veh OR4N2 (11742367_at) / RFU PRRT2 (11749266_a_at) / Fold change /veh PRRT2 (11749266_a_at) / RFU SNX32 (11753110_a_at) / Fold change /veh SNX32 (11753110_a_at) / RFU CDHR5 (11726645_a_at) / Fold change /veh CDHR5 (11726645_a_at) / RFU RCAN1 (11760418_a_at) / Fold change /veh RCAN1 (11760418_a_at) / RFU FAM167A (11723789_a_at) / Fold change /veh FAM167A (11723789_a_at) / RFU FAM26E (11764081_at) / Fold change /veh FAM26E (11764081_at) / RFU ISYNA1 (11749810_s_at) / Fold change /veh ISYNA1 (11749810_s_at) / RFU ACY1 (11761880_at) / Fold change /veh ACY1 (11761880_at) / RFU 11764098_at / Fold change /veh 11764098_at / RFU SAMD14 (11745864_x_at) / Fold change /veh SAMD14 (11745864_x_at) / RFU NPB (11741838_a_at) / Fold change /veh NPB (11741838_a_at) / RFU TMPRSS6 (11731388_a_at) / Fold change /veh TMPRSS6 (11731388_a_at) / RFU KRTAP10-2 (11738614_at) / Fold change /veh KRTAP10-2 (11738614_at) / RFU ARHGAP8 /// PRR5-ARHGAP8 (11727945_x_at) / Fold change /veh ARHGAP8 /// PRR5-ARHGAP8 (11727945_x_at) / RFU KRTAP5-7 /// NADSYN1 (11734609_at) / Fold change /veh KRTAP5-7 /// NADSYN1 (11734609_at) / RFU RASL12 (11751679_a_at) / Fold change /veh RASL12 (11751679_a_at) / RFU CDKN2B (11736163_a_at) / Fold change /veh CDKN2B (11736163_a_at) / RFU PRF1 (11729649_at) / Fold change /veh PRF1 (11729649_at) / RFU, ZNF638 /// ZNF638-IT1 / Fold change vs veh, ZNF638 /// ZNF638-IT1 / RFU, PANK3 / Fold change vs veh, PANK3 / RFU, SH3YL1 / Fold change vs veh, SH3YL1 / RFU, ZEB2 / Fold change vs veh, ZEB2 / RFU, NRIP1 / Fold change vs veh, NRIP1 / RFU, PTTG1IP / Fold change vs veh, PTTG1IP / RFU, CAPN2 / Fold change vs veh, CAPN2 / RFU, MED14 / Fold change vs veh, MED14 / RFU, SNORA58 / Fold change vs veh, SNORA58 / RFU, C1orf63 / Fold change vs veh, C1orf63 / RFU, LRRFIP1 / Fold change vs veh, LRRFIP1 / RFU, NDUFAF7 / Fold change vs veh, NDUFAF7 / RFU, SLC12A2 / Fold change vs veh, SLC12A2 / RFU, IBTK / Fold change vs veh, IBTK / RFU, ESF1 / Fold change vs veh, ESF1 / Fold change vs veh, TMEM50B / RFU, TAOK1 / Fold change vs veh, TAOK1 / RFU, ACBD3 / Fold change vs veh, ACBD3 / RFU, TMA16 / Fold change vs veh, TMA16 / RFU, RWDD3 / Fold change vs veh, RWDD3 / RFU, BCAT1 / Fold change vs veh, BCAT1 / RFU, EDEM3 / Fold change vs veh, EDEM3 / RFU, TMEM33 / Fold change vs veh, TMEM33 / RFU, WDR75 / Fold change vs veh, WDR75 / RFU, AHCTF1 / Fold change vs veh, AHCTF1 / RFU, TFRC / Fold change vs veh, TFRC / RFU, ZDHHC17 / Fold change vs veh, ZDHHC17 / RFU, NOM1 / Fold change vs veh, NOM1 / RFU, ARL8B / Fold change vs veh, ARL8B / RFU, ZBTB11 / Fold change vs veh, ZBTB11 / RFU, TAMM41 / Fold change vs veh, TAMM41 / RFU, KIAA1704 /// LOC100996395 / Fold change vs veh, KIAA1704 /// LOC100996395 / RFU, ING1 / Fold change vs veh, ING1 / RFU, TRMT61B / Fold change vs veh, TRMT61B / RFU, FUBP3 / Fold change vs veh, FUBP3 / RFU, TP53 / Fold change vs veh, TP53 / RFU, TNKS2 / Fold change vs veh, TNKS2 / RFU, ZFP14 / Fold change vs veh, ZFP14 / RFU, ACTR2 / Fold change vs veh, ACTR2 / RFU, PPP3R1 / Fold change vs veh, PPP3R1 / RFU, PIK3R1 / Fold change vs veh, PIK3R1 / RFU, HNRNPA1 / Fold change vs veh, HNRNPA1 / RFU, RNF170 / Fold change vs veh, RNF170 / RFU, ZNF28 / Fold change vs veh, ZNF28 / RFU, RNGTT / Fold change vs veh, RNGTT / RFU, OGT / Fold change vs veh, OGT / RFU, BRD1 / Fold change vs veh, BRD1 / RFU, MARS / Fold change vs veh, MARS / RFU, ZNF655 / Fold change vs veh, ZNF655 / RFU, FAHD1 / Fold change vs veh, FAHD1 / RFU, BDP1 / Fold change vs veh, BDP1 / RFU, LRRCC1 / Fold change vs veh, LRRCC1 / RFU, ARID1A / Fold change vs veh, ARID1A / RFU, ZNF146 / Fold change vs veh, ZNF146 / RFU, ZNF330 / Fold change vs veh, ZNF330 / RFU, GPN3 / Fold change vs veh, GPN3 / RFU, C9orf123 / Fold change vs veh, C9orf123 / RFU, N4BP2L2 / Fold change vs veh, N4BP2L2 / RFU, ARFIP1 / Fold change vs veh, ARFIP1 / RFU, FAM179B / Fold change vs veh, FAM179B / RFU, BCL10 / Fold change vs veh, BCL10 / RFU, UHRF1BP1L / Fold change vs veh, UHRF1BP1L / RFU, BET1 / Fold change vs veh, BET1 / RFU, CNOT2 / Fold change vs veh, CNOT2 / RFU, ZNF268 / Fold change vs veh, ZNF268 / Fold change vs veh, ZNF507 / RFU, DGCR2 / Fold change vs veh, DGCR2 / RFU, WDSUB1 / Fold change vs veh, WDSUB1 / Fold change vs veh, HSP90B1 /// MIR3652 / RFU, ADSS / Fold change vs veh, ADSS / RFU, GK / Fold change vs veh, GK / RFU, ZNF148 / Fold change vs veh, ZNF148 / RFU, TAF9 / Fold change vs veh, TAF9 / RFU, SLC1A5 / Fold change vs veh, SLC1A5 / RFU, SLMO2 / Fold change vs veh, SLMO2 / RFU, ABCC4 / Fold change vs veh, ABCC4 / RFU, LOC101060439 /// RAP1B / Fold change vs veh, LOC101060439 /// RAP1B / RFU, RFX7 / Fold change vs veh, RFX7 / RFU, GTPBP10 / Fold change vs veh, GTPBP10 / RFU, CNEP1R1 / Fold change vs veh, CNEP1R1 / RFU, BIVM-ERCC5 /// ERCC5 / Fold change vs veh, BIVM-ERCC5 /// ERCC5 / RFU, ILF3 / Fold change vs veh, ILF3 / RFU 11762660_at / Fold change /veh 11762660_at / RFU VCAN (11757783_s_at) / Fold change /veh VCAN (11757783_s_at) / RFU DDX43 (11728927_at) / Fold change /veh DDX43 (11728927_at) / RFU KRT8 (11758188_x_at) / Fold change /veh KRT8 (11758188_x_at) / RFU NKD1 (11759106_at) / Fold change /veh NKD1 (11759106_at) / RFU SRD5A1 (11742802_a_at) / Fold change /veh SRD5A1 (11742802_a_at) / RFU TPSAB1 /// TPSB2 (11721975_s_at) / Fold change /veh TPSAB1 /// TPSB2 (11721975_s_at) / RFU GSTM3 (11746129_a_at) / Fold change /veh GSTM3 (11746129_a_at) / RFU IL23R (11737362_x_at) / Fold change /veh IL23R (11737362_x_at) / RFU TMEM51 (11727254_a_at) / Fold change /veh TMEM51 (11727254_a_at) / RFU PIWIL2 (11732686_x_at) / Fold change /veh PIWIL2 (11732686_x_at) / RFU ORM1 (11744905_x_at) / Fold change /veh ORM1 (11744905_x_at) / RFU CCDC152 (11743942_at) / Fold change /veh CCDC152 (11743942_at) / RFU ECM1 (11717891_a_at) / Fold change /veh ECM1 (11717891_a_at) / RFU IL23R (11748794_a_at) / Fold change /veh IL23R (11748794_a_at) / RFU TNFAIP8L3 (11732012_x_at) / Fold change /veh TNFAIP8L3 (11732012_x_at) / RFU MBOAT4 (11741988_at) / Fold change /veh MBOAT4 (11741988_at) / RFU 11764193_at / Fold change /veh 11764193_at / RFU TMEM53 (11763286_at) / Fold change /veh TMEM53 (11763286_at) / RFU MAGEB2 (11727129_at) / Fold change /veh MAGEB2 (11727129_at) / RFU TMEM200A (11744735_a_at) / Fold change /veh TMEM200A (11744735_a_at) / RFU CCDC152 (11751479_a_at) / Fold change /veh CCDC152 (11751479_a_at) / RFU FAM211A (11726209_a_at) / Fold change /veh FAM211A (11726209_a_at) / RFU RGS16 (11746705_a_at) / Fold change /veh RGS16 (11746705_a_at) / RFU VCAN (11755009_s_at) / Fold change /veh VCAN (11755009_s_at) / RFU RHOB (11743442_s_at) / Fold change /veh RHOB (11743442_s_at) / RFU RGS16 (11720943_a_at) / Fold change /veh RGS16 (11720943_a_at) / RFU RGS16 (11720944_at) / Fold change /veh RGS16 (11720944_at) / RFU, VPS4B / Fold change vs veh, VPS4B / RFU, CREB1 / Fold change vs veh, CREB1 / RFU, DNAJC13 / Fold change vs veh, DNAJC13 / RFU, GNAQ / Fold change vs veh, GNAQ / RFU, CDK5R1 / Fold change vs veh, CDK5R1 / RFU, ZRANB3 / Fold change vs veh, ZRANB3 / RFU, CUL4A / Fold change vs veh, CUL4A / RFU, CCNY / Fold change vs veh, CCNY / RFU, UFL1 / Fold change vs veh, UFL1 / RFU, COG3 / Fold change vs veh, COG3 / RFU, DIAPH2 / Fold change vs veh, DIAPH2 / RFU, SKA2 / Fold change vs veh, SKA2 / RFU, AFF3 / Fold change vs veh, AFF3 / RFU, LMF1 / Fold change vs veh, LMF1 / RFU, IPO11 / Fold change vs veh, IPO11 / RFU, DFFB / Fold change vs veh, DFFB / RFU, FOXP1 / Fold change vs veh, FOXP1 / RFU, CARD8 / Fold change vs veh, CARD8 / RFU, STRN3 / Fold change vs veh, STRN3 / RFU, ADK / Fold change vs veh, ADK / RFU, RASSF2 / Fold change vs veh, RASSF2 / RFU, WIPF1 / Fold change vs veh, WIPF1 / RFU, LARP1B / Fold change vs veh, LARP1B / RFU, RASA1 / Fold change vs veh, RASA1 / RFU, RB1 / Fold change vs veh, RB1 / RFU, PPFIA1 / Fold change vs veh, PPFIA1 / RFU, MAT2A / Fold change vs veh, MAT2A / RFU, CCT5 / Fold change vs veh, CCT5 / RFU, WDR92 / Fold change vs veh, WDR92 / RFU, CUX1 / Fold change vs veh, CUX1 / RFU, TTC7A / Fold change vs veh, TTC7A / RFU, TMEM135 / Fold change vs veh, TMEM135 / RFU, DEPTOR / Fold change vs veh, DEPTOR / RFU, CPM / Fold change vs veh, CPM / RFU, DNAJB6 / Fold change vs veh, DNAJB6 / RFU, CACNA2D3 / Fold change vs veh, CACNA2D3 / RFU, DTX4 / Fold change vs veh, DTX4 / RFU, TFCP2 / Fold change vs veh, TFCP2 / RFU, GMCL1 /// GMCL1P1 / Fold change vs veh, GMCL1 /// GMCL1P1 / RFU, AEBP2 / Fold change vs veh, AEBP2 / RFU, SNHG1 /// SNORD22 /// SNORD25 /// SNORD26 /// SNORD27 /// SNORD28 /// SNORD29 /// SNORD31 / Fold change vs veh, SNHG1 /// SNORD22 /// SNORD25 /// SNORD26 /// SNORD27 /// SNORD28 /// SNORD29 /// SNORD31 / Fold change (Aza/veh), C12orf56 (ProbeSet 11735607_a_at) / Fold change (ACY-1035/veh), C12orf56 (ProbeSet 11735607_a_at) / Fold change (Aza/veh), FGFR1OP (ProbeSet 11751329_s_at) / Fold change (ACY-1035/veh), FGFR1OP (ProbeSet 11751329_s_at) / Fold change (Aza/veh), VPS36 (ProbeSet 11739960_a_at) / Fold change (ACY-1035/veh), VPS36 (ProbeSet 11739960_a_at) / RFU SYPL1 (11715823_x_at) / Fold change /veh SYPL1 (11715823_x_at) / RFU IGFBP7 (11715501_s_at) / Fold change /veh IGFBP7 (11715501_s_at) / RFU REEP3 (11722064_at) / Fold change /veh REEP3 (11722064_at) / RFU IGLL1 (11728026_x_at) / Fold change /veh IGLL1 (11728026_x_at): dose or concentration left out as unconfirmed
Conditions: ProbeSet 11731093_s_at; LIST B

Nc1ccc(-c2cccs2)cc1NC(=O)c1ccc2c(c1)cc(C1CC1)n2CCN1CCOCC1 [ACY-1035]
RFU, BRD1: 190.44 RFU
